Usually IC50 stands for the concentration needed to halve the response being measured.

Experimental findings from patent US12344599B2, “Prodigiosin analogs and methods of use” (Institute For Cancer Research, priority 2016, dated 2025) are described below.

One assay concerns c-Myc and PUMA. The experiment in a line: Western blot of c-Myc, PUMA and p53 target genes. The assay is classed as cell-based, human. Conditions: colorectal cancer cell lines and Jurkat cells. As to the method: After treatment, protein lysates were collected for Western blot analysis. A total of […] of protein was used for SDS-PAGE. After primary and secondary antibody incubations, the signal was detected by a chemiluminescence detection kit, imaged by Syngene (Imgen Technologies). Antibodies for PUMA (for IHC), p53 (Santa Cruz Biotechnology), caspase 8, cleaved caspase 8, caspase 9, caspase 3, cleavage PARP, eIF2α, p-eIF2α (Ser51), CHOP, ATF4, DR5, FOXO3a, p-FOXO3a (Ser253), NF-κB p65, p-NF-κB p65 (Ser536), c-Jun, p-c-Jun (Ser63), JNK, p-JNK (Thr183/Tyr185), PUMA (for WB), c-Myc, phosphor-S62-cMyc (Cell Signaling Technology), Noxa, p21 (Calbiochem), p73 (Bethyl laboratories Inc), Ran (BD Biosciences), […] (Sigma).
To test this hypothesis, two ERK1/2 inhibitors that act by different mechanisms were used. U0126 is an indirect ERK1/2 inhibitor. It inhibits MEK1 kinase and blocks the phosphorylation of ERK1/2. […] Consistent with a previous publication (Choi et al., Genes Dev, 2010, 24, 1236-1241), SCH772984 can inhibit ERK1/2 function after ERK1/2 is phosphorylated (FIG. 73), and the same is observed for PG3-Oc (FIG. 73).
Background: In western blotting, separated proteins are transferred to a membrane and probed.

The subject of a further assay is ASPC-1. Briefly: CellTiterGlo cell viability assay, ASPC-1. The assay is classed as cell-based. The conditions noted are these: Homo sapiens, ASPC1; ASPC-1, pancreatic cancer, p53 frameshift, 72 hours. The method, then: (§1) • 1) Cell lines: HT29, SW480, DLD-1, HCT116, and p53-null HCT116 cells, H1975, MDA-MD-231, U251, FaDu, CAL-27, PANC-1, Aspc-1, and MRC5 were obtained from the ATCC and cultured as recommended. Cells were regularly authenticated by bioluminescence, growth, and morphologic observation. The cells were routinely examined for Mycoplasma and all cell lines underwent STR authentication. • 2) Western blotting: After treatment, protein lysates were collected for Western blot analysis. 15 μg of protein was used for SDS-PAGE. After primary and secondary antibody incubations, the signal was detected by chemiluminescent detection kit, imaged by Syngene (Imgen Technologies). […] The cell viability was assessed by CellTiterGlo bioluminescent cell proliferation assay (Promega), following the manufacturer's protocol. Bioluminescence imaging was measured using the IVIS imager. Percentage of cell viability (mean±SEM) at each dose was calculated against the respective DMSO control. The IC50 values were determined from the sigmoidal dose-response curves using GraphPad Prims4. • 4) Caspase activity assay: Cells were seeded in 96-well plate (1×10^4 cells/well). […] The caspase 3/7 activity was assessed by Caspase-Glo® 3/7 Assay kit (Promega), following the manufacturer's protocol. Bioluminescence imaging was measured using the IVIS imager. […]
(Cellular ATP, detected with luciferase, serves as a proxy for viable cell number.)

In a further assay the test system is U251. The experiment in a line: CellTiterGlo cell viability assay, U251. The class given is cell-based. The conditions noted are these: Homo sapiens, U-251; U251, glioblastoma multiforme, p53 R273H, 72 hours. As to the method:
as §1

For another assay, the system named is HT29. Briefly: CellTiterGlo cell viability assay, HT29. The class given is cell-based. The conditions noted are these: Homo sapiens, HT-29; HT29, colorectal cancer, p53 R273H, 72 hours. The method, then: as §1
The next assay deals with SW480 cells. Briefly: qRT-PCR of p53 target gene mRNA, SW480. The class given is cell-based, human. The conditions noted are these: SW480, 1 μM. As to the method:
Total RNA was isolated from PG3-Oc-treated cells using the Quick-RNA mini prep kit (Zymo Research, Irvine, CA) according to the manufacturer's protocol. 500 ng of total RNA was used to generate cDNA using SuperScript III first-strand synthesis system with random primers (Invitrogen), following the manufacturer's protocol. Real-time PCR was performed using POWER SYBR GREEN mast mix (Applied Biosystem) for DR5, p21, PUMA, GAPDH, and TaqMan primer-probes for detection of c-Myc mRNA levels on 7900HT Sequence Detection System (Applied Biosystem). Primers having SEQ ID NOs:1-6 (see above) were used. Taq Prob IDs for c-Myc (HS 00153408) and GAPDH (HA 99999905). ΔΔCt method was used to analyze and report fold changes of the indicated genes.
(In general: In qPCR the cycle at which signal appears reflects the starting amount.)

The subject of assay [1] is ATF4 and CHOP in DLD1 cells. The experiment in a line: Western blot of ATF4 and CHOP, DLD1. The assay is classed as cell-based, human. The method, then:
as §1

With `CCCCCCCCOC(=O)CCc1c(C)[nH]c(/C=C2\N=C(c3ccc[nH]3)C=C2OC)c1C` [PG3-Oc, Octyl (Z)-3-(5-((4′-methoxy-1H,5′H-[2,2′-bipyrrol]-5′-ylidene)methyl)-2,4-dimethyl-1H-pyrrol-3-yl)propanoate], the “effect on c-Myc” value with c-Myc and PUMA was “potently downregulated c-Myc”. Moreover, the values for the IC50 in the assay with ASPC-1, in the assay on U251 and in the assay with HT29 were 39.2 nM, 100 nM and 66.3 nM, respectively. In addition, the “induction of p21 mRNA” value in the assay with SW480 cells (8 and 19 hours post-treatment) was “no significant change”. Further, the “DR5 mRNA upregulation” value in the assay on SW480 cells (19 hours post-treatment) is “about 2 fold”. Moreover, the “concentration at which induction of ATF4 and CHOP occurred” value in assay [1] is 5 µM.
